How the values were obtained:
[1] = Half life in mouse liver microsomes; format: ADME
[2] = Oral bioavailability in mouse at 3 mg/kg by LC-MS/MS analysis; format: ADME, organism-based; settings: in vivo
[3] = Half life in human liver microsomes; format: ADME
[4] = Clearance in mouse at 0.5 mg/kg, iv by LC-MS/MS analysis; format: ADME, organism-based; settings: in vivo
[5] = Half life in mouse at 0.5 mg/kg, iv by LC-MS/MS analysis; format: ADME, organism-based; settings: in vivo
[6] = AUC in mouse at 0.5 mg/kg, iv by LC-MS/MS analysis; format: ADME, organism-based; settings: in vivo
[7] = Cmax in mouse at 0.5 mg/kg, iv by LC-MS/MS analysis; format: ADME, organism-based; set-up: dose 0.5 mg/kg, route intravenous; settings: in vivo
[8] = Volume of distribution in mouse at 0.5 mg/kg, iv by LC-MS/MS analysis; format: ADME, organism-based; settings: in vivo

Structure (SMILES)	half-life [1]	bioavailability [2]	half-life [3]	clearance [4]	half-life [5]	AUC [6]	Cmax [7]	Vd [8]
CC(C)n1c(=O)ccc2cnc(N[C@H]3CC[C@H](O)CC3)nc21	23 min	10%	> 120 min	–	–	–	–	–
CC(C)NC(=O)N[C@H]1CC[C@H](Nc2ncc3ccc(=O)n(C(C)C)c3n2)CC1	22 min	87%	76 min	28 mL/min/kg	66 min	0.8 µM·h	900 nM	1.8 L/kg
CCNC(=O)N[C@H]1CC[C@H](Nc2ncc3ccc(=O)n(C(C)C)c3n2)CC1	17 min	100%	46 min	72 mL/min/kg	18 min	0.3 µM·h	600 nM	1.9 L/kg
CC(C)NC(=O)N[C@H]1CC[C@H](Nc2ncc3ccc(=O)n(C4CCCC4)c3n2)CC1	5 min	–	7 min	–	–	–	–	–
CCNC(=O)N1CCC(Nc2ncc3ccc(=O)n(C(C)C)c3n2)CC1	14 min	43%	65 min	33 mL/min/kg	24 min	0.7 µM·h	1100 nM	1 L/kg
CCNC(=O)N[C@H]1CC[C@@H](Nc2ncc3ccc(=O)n(C(C)C)c3n2)CC1	8 min	–	16 min	–	–	–	–	–
CC(C)C(=O)N[C@H]1CC[C@H](Nc2ncc3ccc(=O)n(C(C)C)c3n2)CC1	19 min	66%	44 min	33 mL/min/kg	30 min	0.7 µM·h	1000 nM	1.3 L/kg
